≈ marks a conversion by molar mass, not a printed value. Calls of active or inactive are those of the source. The rule behind the calls is not given here. Some results are limits rather than exact numbers.

The nature of data set [1]: Selectivity index, ratio of CC50 for african green monkey vero cells to MIC for Escherichia coli ATCC 10536. Format: functional.
A short description of data set [2]: Selectivity index, ratio of CC50 for african green monkey vero cells to MIC for Bacillus subtilis ATCC 11774. Type of data set: functional.
The nature of data set [3]: Selectivity index, ratio of CC50 for african green monkey vero cells to MIC for Staphylococcus aureus ATCC 25923. Type of data set: functional.
In a further data set the test system is Salmonella typhimurium. In words: Antibacterial activity against Salmonella typhimurium ATCC 51812 assessed as growth inhibition at 1 mg/ml after 24 hrs by agar diffusion method. Type of data set: functional, organism-based. The note with it: Salmonella enterica subsp. enterica serovar Typhimurium. For orientation: Agar diffusion results depend on both activity and mobility in agar.

The test system of another data set is Enterococcus faecalis. The data set can be described thus: Antibacterial activity against Enterococcus faecalis ATCC 14506 assessed as growth inhibition at 1 mg/ml after 24 hrs by agar diffusion method. Type of data set: functional, organism-based.
For data set [4], the system named is Staphylococcus epidermidis. The data set can be described thus: Antibacterial activity against Staphylococcus epidermidis ATCC 12228 assessed as growth inhibition at 1 mg/ml after 24 hrs by agar diffusion method. Format: functional, organism-based.
Data set [5] in a line: Cytotoxicity against african green monkey vero cells by MTT assay. Format: cell-based. The note with it: chlorocebus sabaeus. (Formazan colour is commonly taken as a measure of viable cells.)
Data set [6] has as its system Staphylococcus aureus. In words: Antibacterial activity against methicillin-resistant Staphylococcus aureus ATCC 43300 assessed as growth inhibition at 1 mg/ml after 24 hrs by agar diffusion method. Type of data set: functional, organism-based.
Data set [7] relates to Staphylococcus aureus. In words: Bactericidal activity against Staphylococcus aureus ATCC 25923 by broth dilution method. Type of data set: functional. A general note: In broth dilution the organism is exposed to a series of concentrations in liquid medium.
The test system of data set [8] is Escherichia coli. The data set can be described thus: Bactericidal activity against Escherichia coli ATCC 10536 by broth dilution method. Format: functional.
For data set [9], the system named is Bacillus subtilis. The data set can be described thus: Bactericidal activity against Bacillus subtilis ATCC 11774 by broth dilution method. Format: functional.
For data set [10], the system named is Escherichia coli. The data set can be described thus: Antibacterial activity against Escherichia coli ATCC 10536 assessed as growth inhibition by broth dilution method. Format: functional.
Data set [11] deals with Staphylococcus aureus. The data set can be described thus: Antibacterial activity against Staphylococcus aureus ATCC 25923 assessed as growth inhibition by broth dilution method. Format: functional.
In a further data set the test system is Serratia marcescens. The data set can be described thus: Antibacterial activity against Serratia marcescens ATCC 13880 assessed as growth inhibition at 1 mg/ml after 24 hrs by agar diffusion method. Type of data set: functional. To be noted: ATCC 13880, 24 h, read-out: DIZ.
Data set [12] relates to Bacillus subtilis. In words: Antibacterial activity against Bacillus subtilis ATCC 11774 assessed as growth inhibition by broth dilution method. Type of data set: functional.
For a further data set, the system named is Pseudomonas aeruginosa. In words: Antibacterial activity against Pseudomonas aeruginosa ATCC 10145 assessed as growth inhibition at 1 mg/ml after 24 hrs by agar diffusion method. Format: functional. The note with it: ATCC 10145, 24 h, read-out: DIZ.
The test system of data set [13] is Escherichia coli. In words: Antibacterial activity against Escherichia coli ATCC 10536 assessed as growth inhibition at 1 mg/ml after 24 hrs by agar diffusion method. Format: functional. The note with it: ATCC 10536, 24 h, read-out: DIZ.
Data set [14] deals with Staphylococcus aureus. In words: Antibacterial activity against Staphylococcus aureus ATCC 25923 assessed as growth inhibition at 1 mg/ml after 24 hrs by agar diffusion method. Type of data set: functional. The note with it: ATCC 25923, 24 h, read-out: DIZ.
In data set [15] the test system is Bacillus subtilis. In words: Antibacterial activity against Bacillus subtilis ATCC 11774 assessed as growth inhibition at 1 mg/ml after 24 hrs by agar diffusion method. To be noted: ATCC 11774, 24 h, read-out: DIZ. Type of data set: functional.

One may read the CC50 as the concentration giving 50% cytotoxicity. By MBC is commonly meant the lowest tested concentration that kills the bacteria rather than only halting them. The MIC is the least concentration at which growth counts as inhibited. Turning to `Cc1ccc(C)n1-c1[nH]nc(N2CCCC2)c1C#N`, the figures for the “Selectivity Index” value in data set [1], in data set [2] and in data set [3] were 0.07, 0.14 and 0.07, respectively. Also, the “growth inhibition (GI)” value (with Salmonella typhimurium; in the data set on Enterococcus faecalis; in data set [4]; with Staphylococcus aureus [6]) was “inactive” throughout. This molecule had a CC50 in [5] of 550 µg/mL (≈ 2.15 mM). The MBC with Staphylococcus aureus [7] was 8000 µg/mL (≈ 31.3 mM); against Escherichia coli [8], 16000 µg/mL (≈ 62.7 mM); in the data set with Bacillus subtilis [9], 8000 µg/mL (≈ 31.3 mM). Also, the MIC with Escherichia coli [10] is 8000 µg/mL (≈ 31.3 mM); with Staphylococcus aureus [11], 8000 µg/mL (≈ 31.3 mM); in the data set on Bacillus subtilis [12], 4000 µg/mL (≈ 15.7 mM). For the same molecule, the zone of inhibition at 1000 µg/mL is 6 mm with Serratia marcescens; 6 mm with Pseudomonas aeruginosa; 13 mm in the data set with Escherichia coli [13]; 7 mm in the data set with Staphylococcus aureus [14]; 8 mm with Bacillus subtilis [15].
In the case of `CC(=O)n1nc(N2CCCC2)c(C#N)c1N`, the “Selectivity Index” value in data set [1], in data set [2] and in data set [3] was 0.18 in each case. The “growth inhibition (GI)” value (with Salmonella typhimurium; in the data set on Enterococcus faecalis; in [4]; with Staphylococcus aureus [6]) was “inactive” in each case. The molecule further yielded a CC50 in [5] of 2810 µg/mL (≈ 12.8 mM). For the same molecule, the MBC in the data set with Staphylococcus aureus [7] was above 16000 µg/mL; in the data set on Escherichia coli [8], 16000 µg/mL (≈ 73 mM); against Bacillus subtilis [9] it was 16000 µg/mL (≈ 73 mM). Also, the MIC in the data set with Escherichia coli [10] was 8000 µg/mL (≈ 36.5 mM); in the data set on Staphylococcus aureus [11] it was 16000 µg/mL (≈ 73 mM); with Bacillus subtilis [12] it was 16000 µg/mL (≈ 73 mM). The zone of inhibition at 1000 µg/mL with Serratia marcescens was found to be 6 mm; with Pseudomonas aeruginosa, 6 mm; in the data set with Escherichia coli [13], 16 mm; in the data set on Staphylococcus aureus [14], 14 mm; in the data set with Bacillus subtilis [15] it was 14 mm.
Regarding `CC(=O)n1nc(N2CCCCC2)c(C#N)c1N`, the “Selectivity Index” value in data set [2] stood at 0.06. For the same molecule, the “growth inhibition (GI)” value (with Salmonella typhimurium; in the data set on Enterococcus faecalis; in [4]; with Staphylococcus aureus [6]) was “inactive” throughout. This molecule showed a cytotoxic concentration (CC50) in data set [5] of 1010 µg/mL (≈ 4.35 mM). Besides, the MBC with Staphylococcus aureus [7] is above 16000 µg/mL; in the data set on Escherichia coli [8], 16000 µg/mL (≈ 68.6 mM); in the data set on Bacillus subtilis [9], 16000 µg/mL (≈ 68.6 mM). For the same molecule, the MIC in the data set on Escherichia coli [10], in the data set on Staphylococcus aureus [11] and in the data set with Bacillus subtilis [12] was 16000 µg/mL (≈ 68.6 mM) in each case. Further, the zone of inhibition at 1000 µg/mL is 6 mm in the data set on Serratia marcescens; 6 mm in the data set with Pseudomonas aeruginosa; 10 mm in the data set on Escherichia coli [13]; 10 mm in the data set on Staphylococcus aureus [14]; 6 mm in the data set on Bacillus subtilis [15].
Consider `Cc1ccc(C)n1-c1[nH]nc(N2CCOCC2)c1C#N`, for which the “Selectivity Index” value came out at 0.06 in data set [1], 0.13 in data set [2] and 0.06 in [3]. The “growth inhibition (GI)” value (with Salmonella typhimurium; in the data set on Enterococcus faecalis; in data set [4]; with Staphylococcus aureus [6]) was “inactive” throughout. In data set [5], this molecule yielded a CC50 of 254 µg/mL (≈ 0.936 mM). In addition, the MBC in the data set with Staphylococcus aureus [7] was 4000 µg/mL (≈ 14.7 mM); with Escherichia coli [8], 8000 µg/mL (≈ 29.5 mM); against Bacillus subtilis [9], 4000 µg/mL (≈ 14.7 mM). Further, the MIC worked out at 4000 µg/mL (≈ 14.7 mM) in the data set with Escherichia coli [10], 2000 µg/mL (≈ 7.37 mM) in the data set on Staphylococcus aureus [11] and 2000 µg/mL (≈ 7.37 mM) in the data set on Bacillus subtilis [12]. The zone of inhibition at 1000 µg/mL was 6 mm with Serratia marcescens; 6 mm in the data set with Pseudomonas aeruginosa; 10 mm in the data set with Escherichia coli [13]; 10 mm in the data set on Staphylococcus aureus [14]; 14 mm in the data set with Bacillus subtilis [15].

These data come from ChEMBL document CHEMBL2390874, “Synthesis, antibacterial activity and cytotoxicity of new fused pyrazolo[1,5-a]pyrimidine and pyrazolo[5,1-c][1,2,4]triazine derivatives from new 5-aminopyrazoles” (Eur J Med Chem, 2013).
